Columns and labels:
chymotrypsin [1] = molecular target: T1, chymotrypsin (Bos taurus, UniProt P00766); experiment: Effect of streptavidin and avidin on reactivation of inhibited chymotrypsin; format: biochemical, bovine; details: monitored for two days; for % of Regained Enzyme Activity, Chymotrypsin, +Streptavidin: 3-4 units streptavidin, 2880 min; for % of Regained Enzyme Activity, Chymotrypsin, Buffer: pH 7.5, 8% Me2SO, 25° C.
Protocol: (§1) ^a Percentage of regained enzymatic activity was measured in 0.1 M
(§2) Hepes, 0.5 M NaCl, pH 7.5 buffer, 8% Me2 SO and at 25° C.
(§3) Excess inhibitor was removed from enzymeinhibitor mixture by
(§4) centrifugation twice with Amicon microconcentrator10. Then 3-4 units of
(§5) avidin or strepavidin was added and enzymatic activity was monitored for […]

Rat Granule Chymase [2] = experiment: Reactivation of inhibited rat granule chymase with NH2OH; format: biochemical; details: 0.4 M NH2OH, immediately after addition
Protocol: (§6) ^a Inhibition was performed at 0.1 M Hepes, 0.5 M NaCl, pH 7.5 buffer
(§7) 10% Me2 SO and 25° C. Reactivation was carried out in the
presence of 0.4 M of NH2 OH, and occurred immediately after the […]

chymotrypsin [3] = molecular target: T1, chymotrypsin; experiment: Inactivation of chymotrypsin by biotin-isocoumarins (incubation method); format: biochemical, bovine; details: 0.1 M Hepes, 0.5 M NaCl, pH 7.5, 5-10% Me2SO, 25° C., two values given for some compounds; for kinact/KI: pH 7.5, inhibitor 20-400 μM, read-out: kobs/[I] Chymotrypsin
Protocol: (§8) Inactivation rates of serine proteases by substituted isocoumarins were measured by the incubation method. An aliquot of inhibitor (25 or 50 μl) in Me2 SO was added to a buffered enzyme solution (0.01-2.3 μM) to initiate the inactivation. Aliquots (50-100 μl) were withdrawn at various intervals and the residual enzymatic activity was measured. Me2 SO concentration in the reaction mixture was 8-12% (v/v). 0.1M Hepes, 0.5M NaCl, pH 7.5 buffer was utilized for the assays of chymotrypsin, cathepsin G (cat G), porcine pancreatic elastase (PPE), human leukocyte elastase (HLE) and rat granule serine proteases. 0.1M Hepes, 0.01M CaCl2, pH 7.5 buffer was utilized for the assays of trypsin and human recombinant (HR) granzyme A. The inhibitor concentrations are shown in the Tables I and II. Peptide nitroanilides with appropriate sequence were used as substrates for various serine proteases. All peptide 4-nitroanilide hydrolysis was measured at 410 nm (ε410 =8800M^-1 cm^-1; Erlanger et al., Arch. Biochem. Biophys. 95, pp 271-278 (1961), incorporated herein by reference). Peptide thioester hydrolysis rates were measured with assay mixtures containing 4,4'-dithiodipyridine (ε324 =19800M^-1 cm^-1; Grasetti & Murray, Arch. Biochem. Biophys. 119, pp. 41-49 (1967), incorporated herein by reference). First order inactivation rate constant (kobs) were obtained from plots of ln (vt /vo) vs time, and the correlation coefficients were greater than 0.98.
(§9) ^a Inhibition was measured in 0.1 M Hepes, 0.5 M NaCl (or 0.01 M
(§10) CaCl2), pH 7.5 buffer, 5-10% Me2 SO and at 25° C.
(§11) SucVal-Pro-NA (0.48 mM) was used as the substrate for chymotrypsin and ca
^b Inhibitor concentrations were 20-400 μM.

trypsin = molecular target: T2, trypsin (Bos taurus, UniProt P00760); experiment: Inactivation of trypsin by biotin-isocoumarins (incubation method); format: biochemical; details: inhibitor 41-42 μM; 0.1 M Hepes, 0.01 M CaCl2, pH 7.5, 25° C.; read-out: kobs/[I] Trypsin
T2 sequence (P00760 24-246): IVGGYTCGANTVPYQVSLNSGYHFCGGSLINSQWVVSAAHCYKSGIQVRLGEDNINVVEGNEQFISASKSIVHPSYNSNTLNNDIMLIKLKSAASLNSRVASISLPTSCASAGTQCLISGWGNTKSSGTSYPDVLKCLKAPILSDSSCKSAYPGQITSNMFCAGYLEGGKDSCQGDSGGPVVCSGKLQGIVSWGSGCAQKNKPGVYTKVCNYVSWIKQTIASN
Protocol: as §8, §9, §10
ZGlu-Phe-Arg-NA (0.032 mM) was a substrate for trypsin. ZArg-SBzl (0.120
^f Inhibitor concentrations were 41-42 μM.

Rat Granule Tryptase = experiment: Inhibition of rat granule tryptase; format: biochemical; details: [I] 0.078 mM or 0.2 mM as per table line; pH 7.5, 10% Me2SO, 25° C.
Protocol: as §8, with “First order inactivation rate constant (kobs) were obtained from plots of ln (vt /vo) vs time, and the correlation coefficients were greater than 0.98.” left out
(§12) ^a Inhibition was measured in 0.1 M Hepes, 0.5 M NaCl, pH 7.5 buffer, […]

[4] = molecular target: T3, human leukocyte elastase (HLE) (Homo sapiens, UniProt P08246); experiment: Inactivation of human leukocyte elastase by biotin-isocoumarins (incubation method); format: biochemical; details: inhibitor 1.6-210 μM; pH 7.5, 25° C.; read-out: kobs/[I] HLE
T3 sequence (P08246 30-267): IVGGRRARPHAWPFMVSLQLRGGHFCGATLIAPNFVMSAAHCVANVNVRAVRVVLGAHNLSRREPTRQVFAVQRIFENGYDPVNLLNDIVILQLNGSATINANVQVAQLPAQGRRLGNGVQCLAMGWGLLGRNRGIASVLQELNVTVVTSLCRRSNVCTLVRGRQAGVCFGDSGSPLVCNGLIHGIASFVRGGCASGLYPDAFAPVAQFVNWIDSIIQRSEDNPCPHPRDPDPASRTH
Protocol: as §8, §9, §10
(§13) G. MeOSuc-Ala-Ala-Pro-Val-NA (0.24-0.47 mM) and SucAla-Ala-Ala-NA
(§14) (0.29-0.48 mM) were used as the substrate for HLE and PPE respectively.
^d Inhibitor concentrations were 1.6-210 μM.

chymotrypsin [5] = molecular target: T1, chymotrypsin; experiment: Reactivation of inhibited chymotrypsin in buffer and with NH2OH; format: biochemical, bovine; details: for % of Enzyme Activity Reactivated, Chymotrypsin +NH2OH: 0.4 M NH2OH, immediately after addition; for % of Enzyme Activity Reactivated, Chymotrypsin in buffer: after removal of excess inhibitor, 25° C. for two days
Protocol: as §6, §7
(§15) presence of 0.4 M of NH2 OH, and occurred immediately after the
(§16) ^b Enzyme activity was measured after removal of excess inhibitor by
(§17) centrifugation at 0° C. with centricon10 microconcentrator and
(§18) staying at 25° C. for two days.

Rat Granule Chymase [6] = experiment: Inhibition of rat granule chymase; format: biochemical; details: inhibition not time dependent, pH 7.5, 10% Me2SO, 25° C.
Protocol: as §8, with “First order inactivation rate constant (kobs) were obtained from plots of ln (vt /vo) vs time, and the correlation coefficients were greater than 0.98.” left out
as §12

PPE [7] = molecular target: T4, PPE (Sus scrofa, UniProt P00772); experiment: Effect of streptavidin and avidin on reactivation of inhibited PPE; format: biochemical, porcine; details: monitored for two days
T4 sequence (P00772 27-266): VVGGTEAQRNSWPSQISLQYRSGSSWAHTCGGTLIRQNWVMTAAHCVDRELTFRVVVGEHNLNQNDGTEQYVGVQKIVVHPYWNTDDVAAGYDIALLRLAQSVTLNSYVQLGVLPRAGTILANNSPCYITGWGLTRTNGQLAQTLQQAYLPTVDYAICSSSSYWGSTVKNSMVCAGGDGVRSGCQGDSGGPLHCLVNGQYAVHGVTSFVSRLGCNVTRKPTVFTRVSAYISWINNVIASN
Protocol: as §1, §2, §3, §4, §5

[8] = molecular target: porcine pancreatic elastase (PPE) (Sus scrofa, UniProt P00772); experiment: Inactivation of porcine pancreatic elastase by biotin-isocoumarins (incubation method); format: biochemical; details: inhibitor 38-78 μM; pH 7.5, 25° C.; NI = no inhibition after 10 min of incubation; read-out: kobs/[I] PPE
porcine pancreatic elastase (PPE), sequence (P00772 27-266): as above
Protocol: as §8, §9, §10, §13, §14
^e Inhibitor concentrations were 38-78 μM.
(§19) ^h No inhibition after 10 min of incubation of inhibitor and enzyme.

cathepsin G (cat G) = molecular target: T5, cathepsin G (cat G) (Homo sapiens, UniProt P08311); experiment: Inactivation of cathepsin G by biotin-isocoumarins (incubation method); format: biochemical; details: inhibitor 75-400 μM; pH 7.5, 25° C.; NI = no inhibition after 10 min of incubation; read-out: kobs/[I] Cat. G
T5 sequence (P08311 21-255): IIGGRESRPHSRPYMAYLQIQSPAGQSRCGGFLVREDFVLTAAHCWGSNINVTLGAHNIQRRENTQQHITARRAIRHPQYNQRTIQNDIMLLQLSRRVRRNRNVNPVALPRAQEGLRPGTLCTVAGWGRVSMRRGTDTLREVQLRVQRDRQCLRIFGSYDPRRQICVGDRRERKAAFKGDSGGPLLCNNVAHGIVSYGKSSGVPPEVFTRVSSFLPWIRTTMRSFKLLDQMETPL
Protocol: as §8, §9, §10, §11, §13
^c Inhibitor concentrations were 75-400 μM.
as §19
^i Percentage of inhibition after 10 min of incubation of inhibitor

PPE [9] = molecular target: T4, PPE; experiment: Reactivation of inhibited PPE in buffer and with NH2OH; format: biochemical, porcine
Protocol: as §6, §7, §15, §16, §17, §18

% of Regained Enzyme Activity, Chymotrypsin, +Streptavidin (chymotrypsin [1]) [%]	% of Regained Enzyme Activity, Chymotrypsin, Buffer (chymotrypsin [1]) [%]	% of Enzyme Activity Reactivated, Rat granule chymase +NH2OH (Rat Granule Chymase [2])	kobs/[I] Chymotrypsin (chymotrypsin [3]; inhibitor 20-400 μM) [M⁻¹ s⁻¹]	kinact/KI (chymotrypsin [3]) [M⁻¹ s⁻¹]	kinact/KI (trypsin) [M⁻¹ s⁻¹]	Rat Granule Tryptase kobs/[I] (Rat Granule Tryptase) [M⁻¹ s⁻¹]	kinact/KI [4] [M⁻¹ s⁻¹]	% of Enzyme Activity Reactivated, Chymotrypsin +NH2OH (chymotrypsin [5]) [%]	% of Enzyme Activity Reactivated, Chymotrypsin in buffer (chymotrypsin [5]) [%]	Rat Granule Chymase % of inhibition (Rat Granule Chymase [6]; [I] 0.2 mM)	% of Regained Enzyme Activity, PPE, +Avidin (PPE [7]; 3-4 units avidin, 2880 min) [%]	% of Regained Enzyme Activity, PPE, +Streptavidin (PPE [7]; 3-4 units streptavidin, 2880 min) [%]	% of Regained Enzyme Activity, PPE, Buffer (PPE [7]; pH 7.5, 8% Me2SO, 25° C.) [%]	kinact/KI [8] [M⁻¹ s⁻¹]	kinact/KI (cathepsin G (cat G)) [M⁻¹ s⁻¹]	% of Enzyme Activity Reactivated, PPE +NH2OH (PPE [9]; 0.4 M NH2OH, immediately after addition) [%]	% of Enzyme Activity Reactivated, PPE in buffer (PPE [9]; after removal of excess inhibitor, 25° C. for two days, 2880 min) [%]	Rat Granule Chymase % of inhibition (Rat Granule Chymase [6]; [I] 0.078 mM)	Compound
27	10	100%	165	330	1.1	2 to 3	740	100	15	10-20%	–	–	–	–	–	–	–	–	O=C(CCCC[C@@H]1SC[C@@H]2NC(=O)N[C@@H]21)Nc1ccc2c(Cl)c(OCCc3ccccc3)oc(=O)c2c1 [Compound 1, 7-biotinylamino-4-chloro-3-(2-phenylethoxy)isocoumarin]
–	–	–	–	65	2.2	–	19900	–	–	–	32	51	35	470	6.7	98	35	–	CCCOc1oc(=O)c2cc(NC(=O)CCCC[C@@H]3SC[C@@H]4NC(=O)N[C@@H]43)ccc2c1Cl [Compound 2, 7-biotinylamino-4-chloro-3-propoxyisocoumarin]
39	15	30-50%	–	–	1	6 to 12	670	100	10	–	–	–	–	–	–	–	–	30-50%	O=C(CCCC[C@@H]1SC[C@@H]2NC(=O)N[C@@H]21)NCCCCCC(=O)Nc1ccc2c(Cl)c(OCCc3ccccc3)oc(=O)c2c1 [Compound 3, 7-(6-biotinylaminocaproyl)amino-4-chloro-3-(2-phenylethoxy)isocoumarin]
